Measured values from the NIST ThermoML archive (doi:10.1021/je800300x).
± gives the expanded uncertainty stated by the source.

Columns and labels:
[1] = Molar enthalpy of transition or fusion; settings: Crystal; DSC
[2] = Crystal; DTA

c1ccc2c(c1)-c1ccccc1-2 [biphenylene]
Molar enthalpy of transition or fusion [1]: 5.4 ± 0.359 kcal/mol | Normal melting temperature [2]: 112.2 ± 1.1 °C
